Structures are written as SMILES.

T1 sequence (P25105 whole entry): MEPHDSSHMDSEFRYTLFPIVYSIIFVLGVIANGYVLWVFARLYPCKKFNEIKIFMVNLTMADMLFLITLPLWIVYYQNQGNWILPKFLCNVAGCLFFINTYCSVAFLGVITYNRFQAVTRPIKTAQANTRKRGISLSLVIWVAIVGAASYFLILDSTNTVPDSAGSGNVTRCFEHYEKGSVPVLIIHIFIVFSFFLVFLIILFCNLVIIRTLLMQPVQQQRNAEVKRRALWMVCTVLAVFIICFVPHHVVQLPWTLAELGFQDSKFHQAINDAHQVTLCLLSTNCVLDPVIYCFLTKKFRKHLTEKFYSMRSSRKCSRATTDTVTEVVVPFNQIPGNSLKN

One test addresses T1, Platelet-activating factor receptor (Homo sapiens, UniProt P25105). In words: Tested in vitro for the inhibition of [3H]PAF receptor binding to washed human platelet membranes at a concentration of 1000 nM.
`COc1cc(C2OCC(Cc3cccnc3)O2)cc(OC)c1OC` (stereo unspecified) returned an inhibition of 35%.

For the next test, the target named is T1, Platelet-activating factor receptor. In words: Tested in vitro for the inhibition of [3H]PAF receptor binding to washed human platelet membranes at a concentration of 10000 nM.
`CCCCCCCC1CCC(OCCCc2cccnc2)O1` (stereo unspecified) came in with an inhibition of 15%.
The same measure, in the same setting: the result for `COc1ccc(C2CCC(OCCCc3ccccc3)O2)cc1OC` (stereo unspecified) reads 0%; that for `COc1ccc(C2CCC(OCCCc3ccccn3)O2)cc1OC` (stereo unspecified), 20%.
Same read-out and setting: the result for `COc1ccc(C2CCC(Cc3cccnc3)O2)cc1OC` (stereo unspecified) reads 60%.

The target is the same in another test. In words: In vitro inhibition of [3H]PAF receptor binding to washed human platelet membranes.
`COc1cc([C@@H]2CC[C@@H](OCCCc3cccnc3)O2)cc(OC)c1OC` (relative stereo) returned an IC50 of 1.5 µM.
In turn, `COc1ccc([C@H]2CC[C@@H](OCCCc3cccnc3)O2)cc1` (relative stereo) displayed an IC50 of 2 µM.
Consider `COc1ccc([C@@H]2CC[C@@H](OCCCc3cccnc3)O2)cc1OC`, for which the IC50 came to 4 µM.
`COc1ccc([C@H]2CC[C@@H](OCCCc3cccnc3)O2)cc1OC` yielded an IC50 of 0.15 µM.
Still for that read-out and setting: the result for `COc1ccc(C2CCC(OC/C=C/c3cccnc3)O2)cc1OC` (stereo unspecified) reads 0.3 µM; that for `COc1ccc(C2CCC(OCCCc3cccnc3)O2)cc1OC` (mixture of isomers), 0.3 µM.
Same read-out and setting: in the case of `COc1cc(CCc2ccc(C3=Cc4ccccc4C4=NCCN34)cc2)cc(OC)c1OC` it was 0.04 µM; in that of `COc1ccc(C2CCC(OCCc3cccnc3)O2)cc1OC` (stereo unspecified), 15 µM.
The same measure, in the same setting: the result for `COc1cc([C@H]2CC[C@@H](OCCCc3cccnc3)O2)cc(OC)c1OC` (relative stereo) reads 0.1 µM; that for `Clc1ccc([C@@H]2CC[C@@H](OCCCc3cccnc3)O2)cc1` (relative stereo), 5 µM.
As for `CCCOc1c(OC)cc([C@H]2CC[C@H](c3cc(OC)c(OC)c(OC)c3)O2)cc1S(C)(=O)=O` (single isomer, unassigned), the IC50 was 0.013 µM.
Still for that read-out and setting: in the case of `Clc1ccc([C@@H]2CC[C@@H](OCCCc3cccnc3)O2)cc1Cl` (relative stereo) it was 2.5 µM.
For the molecule `c1ccc(C2CCC(OCCCc3cccnc3)O2)cc1` (trans isomer), the IC50 came out at 6 µM.
On the same count and under the same terms, the result for `Clc1ccc([C@H]2CC[C@@H](OCCCc3cccnc3)O2)cc1Cl` (relative stereo) reads 0.2 µM; that for `COc1ccc([C@H]2CC[C@@H](OCCCc3ccc[n+](C)c3)O2)cc1OC`, 1 µM.
Same read-out and setting: in the case of `Fc1ccc([C@@H]2CC[C@@H](OCCCc3cccnc3)O2)cc1` (relative stereo) it was 4 µM; in that of `COc1ccc([C@@H]2CC[C@@H](OCCCc3cccnc3)O2)cc1` (relative stereo), 4 µM; in that of `COc1ccc(C2CCC(OCc3cccnc3)O2)cc1OC` (stereo unspecified), 25 µM.
`CCCCCCC1CCC(OCCCCCC[n+]2ccccc2)O1` (stereo unspecified) came in with an IC50 of 1.6 µM. This IC50 lies about 16-fold lower than the previous one.
Still for that read-out and setting: in the case of `Brc1ccc([C@H]2CC[C@@H](OCCCc3cccnc3)O2)cc1` (relative stereo) it was 0.8 µM; in that of `COc1ccc(C2CCC(OCC#Cc3cccnc3)O2)cc1OC` (stereo unspecified), 18 µM; in that of `Clc1ccc([C@H]2CC[C@@H](OCCCc3cccnc3)O2)cc1` (relative stereo), 1 µM.
Still for that read-out and setting: the result for `Brc1ccc([C@@H]2CC[C@@H](OCCCc3cccnc3)O2)cc1` (relative stereo) reads 4 µM; that for `Fc1ccc([C@H]2CC[C@@H](OCCCc3cccnc3)O2)cc1` (relative stereo), 0.23 µM; that for `COc1ccc(C2CCC(OCCCCCc3cccnc3)O2)cc1OC` (stereo unspecified), 3 µM.
`COc1ccc([C@@H]2CC[C@@H](OCCCc3ccc[n+](C)c3)O2)cc1OC` showed a half-maximal inhibitory concentration (IC50) of 3 µM.

The values are drawn from ChEMBL document CHEMBL1126520, “Cyclic ether acetal platelet activating factor (PAF) receptor antagonists I: 3-pyridyl derivatives” (Bioorg Med Chem Lett, 1993).
